Laboratory results taken from patent US20230117592A1 (SRI International, priority 2019, published 2023).
pIC50: −log10 of the molar value. “And” between values parts separate entries of the source, which are not always exact repeats. Equal entries are not always repeated. Where two headings read alike, the source gives them in different places.

Key:
12-LOX = biological target: T1, 12-LOX (Homo sapiens, UniProt P18054); assay: 12-LOX fluorescent assay (in vitro lipoxygenase inhibition); type: biochemical; details: for IC50: 100 nM recombinant 12-LOX, 20 μM AA, DHR123 fluorescence, several values in a cell = repeat determinations, read-out: IC50 (μM) values for in vitro lipoxygenase inhibition, 12-LOX
T1 sequence (P18054 1-663): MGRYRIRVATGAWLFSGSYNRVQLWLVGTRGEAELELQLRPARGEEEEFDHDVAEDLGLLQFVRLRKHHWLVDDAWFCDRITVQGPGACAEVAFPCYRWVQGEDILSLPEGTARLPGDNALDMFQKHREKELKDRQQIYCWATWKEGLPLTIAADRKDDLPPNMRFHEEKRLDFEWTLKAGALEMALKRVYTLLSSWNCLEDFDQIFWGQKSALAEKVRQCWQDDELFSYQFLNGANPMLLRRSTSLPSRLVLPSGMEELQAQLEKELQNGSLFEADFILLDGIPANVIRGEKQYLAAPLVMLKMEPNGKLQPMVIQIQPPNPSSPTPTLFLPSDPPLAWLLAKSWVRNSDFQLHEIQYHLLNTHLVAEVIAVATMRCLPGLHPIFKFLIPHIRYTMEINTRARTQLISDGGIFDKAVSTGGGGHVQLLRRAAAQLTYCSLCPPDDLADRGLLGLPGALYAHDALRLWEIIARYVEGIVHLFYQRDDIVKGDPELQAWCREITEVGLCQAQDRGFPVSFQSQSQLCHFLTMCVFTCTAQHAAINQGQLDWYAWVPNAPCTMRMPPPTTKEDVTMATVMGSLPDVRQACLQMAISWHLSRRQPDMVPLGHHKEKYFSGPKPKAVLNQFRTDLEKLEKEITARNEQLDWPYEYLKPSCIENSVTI
Procedure, shortened: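 Fluorescent assay in 50 mM Tris pH 7.5, 0.05% Tween-20, with 100 nM recombinant 12-LOX preincubated 15 min with inhibitor. Reaction was started with 20 μM arachidonic acid substrate and 1 μM DHR123. Percent inhibition per dose was fitted by 4-parameter logistic or sigmoidal dose-response for IC50.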

5-LOX = biological target: T2, 5-LOX (Homo sapiens, UniProt P09917); assay: 5-LOX fluorescent assay (in vitro lipoxygenase inhibition); type: biochemical; details: recombinant 5-LOX cell lysate, 20 μM AA, DHR123 fluorescence; several values in a cell = repeat determinations; read-out: IC50 (μM) values for in vitro lipoxygenase inhibition, 5-LOX
T2 sequence (P09917 1-674): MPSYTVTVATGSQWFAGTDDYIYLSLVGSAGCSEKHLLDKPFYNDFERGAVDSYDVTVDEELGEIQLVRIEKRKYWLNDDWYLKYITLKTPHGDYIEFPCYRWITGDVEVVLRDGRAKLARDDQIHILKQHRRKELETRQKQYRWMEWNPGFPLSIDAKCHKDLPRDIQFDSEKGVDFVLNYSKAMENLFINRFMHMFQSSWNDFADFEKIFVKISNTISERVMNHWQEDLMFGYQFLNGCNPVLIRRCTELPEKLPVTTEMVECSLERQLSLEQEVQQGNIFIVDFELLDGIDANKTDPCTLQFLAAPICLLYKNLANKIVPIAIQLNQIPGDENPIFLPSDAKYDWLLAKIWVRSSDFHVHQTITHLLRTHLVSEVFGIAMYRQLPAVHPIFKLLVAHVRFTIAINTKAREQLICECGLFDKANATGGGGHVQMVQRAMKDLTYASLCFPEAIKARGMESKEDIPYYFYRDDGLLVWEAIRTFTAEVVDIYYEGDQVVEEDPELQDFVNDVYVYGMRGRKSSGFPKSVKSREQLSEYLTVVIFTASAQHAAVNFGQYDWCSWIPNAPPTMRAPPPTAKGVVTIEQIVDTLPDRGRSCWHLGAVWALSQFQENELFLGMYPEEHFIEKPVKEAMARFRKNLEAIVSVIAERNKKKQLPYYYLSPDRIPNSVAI
Procedure, shortened: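 Recombinant human 5-LOX cell lysate pre-incubated 15 min with inhibitor in 50 mM Tris pH 7.5, 0.1 mM EDTA, 0.3 mM CaCl2. Reaction started with 20 μM arachidonic acid plus 100 μM ATP, with 1 μM DHR123 as fluorescent probe. IC50 from percent inhibition per dose via 4-parameter logistic or sigmoidal dose-response fit.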

IC50 (12-LOX) | IC50 (5-LOX) | Compound | pIC50 (12-LOX)
0.02 µM and 0.06 µM | 0.05 µM and 0.06 µM | Cc1cc(Nc2ccc(F)c(Cl)c2)ccc1NCC1(Cn2cncn2)COC1 [SS20308-0307-01, N^1-((3-((1H-1,2,4-triazol-1-yl)methyl)oxetan-3-yl)methyl)-N^4-(3-chloro-4-fluorophenyl)-2-methylbenzene-1,4-diamine] | –
0.06 µM | 0.08 µM | Fc1ccc(Nc2ccc(NCC3(Cn4cncn4)COC3)c(C(F)(F)F)c2)cc1 [SS20308-0296-01, N^1-((3-((1H-1,2,4-triazol-1-yl)methyl)oxetan-3-yl)methyl)-N^4-(4-fluorophenyl)-2-(trifluoromethyl)benzene-1,4-diamine] | –
0.05 µM | 0.05 µM | FC(F)(F)c1cc(Nc2ccc(Cl)cc2)ccc1NCC1(Cn2cncn2)COC1 [SS20308-0322-01, N^1-((3-((1H-1,2,4-triazol-1-yl)methyl)oxetan-3-yl)methyl)-N^4-(4-chlorophenyl)-2-(trifluoromethyl)benzene-1,4-diamine] | –
0.08 µM | 0.06 µM | Fc1ccc(Nc2ccc(NCC3(CN4CCCC4)COC3)c(C(F)(F)F)c2)cc1 [SS20308-0320-01, N^4-(4-fluorophenyl)-N^1-((3-(pyrrolidin-1-ylmethyl)oxetan-3-yl)methyl)-2-(trifluoromethyl)benzene-1,4-diamine] | –

Continued, molecule first:

Compound | IC50 (12-LOX) | IC50 (5-LOX) | pIC50 (12-LOX)
Fc1ccc(CNc2ccc(NCCn3cncn3)c(-c3cccc4c3NCC4)c2)cc1 [SS20308-0211-01, N^1-(2-(1H-1,2,4-triazol-1-yl)ethyl)-N^4-(4-fluorobenzyl)-2-(indolin-7-yl)benzene-1,4-diamine] | 0.04 µM and 0.03 µM | 0.08 µM and 0.07 µM | –
Fc1ccc(Nc2ccc(NCCn3cncn3)c(-c3ccccc3)c2)c(Cl)c1 [SS20308-0165-01, N^2-(2-(1H-1,2,4-triazol-1-yl)ethyl)-N^5-(2-chloro-4-fluorophenyl)biphenyl-2,5-diamine] | – | 0.03 µM and 0.23 µM | 7.10 and 7.22
Fc1c(Nc2ccccc2)ccc2c1CCN2CCn1cncn1 [SS20308-0264-01, 1-(2-(1H-1,2,4-triazol-1-yl)ethyl)-4-fluoro-N-phenylindolin-5-amine] | 0.05 µM | 0.27 µM | –
N#Cc1ccc(-c2ccc(Nc3ccccc3)cc2NCCn2cncn2)s1 [SS20308-0194-01, 5-(2-(2-(1H-1,2,4-triazol-1-yl)ethylamino)-4-(phenylamino)phenyl)thiophene-2-carbonitrile] | 0.13 µM | 0.19 µM | –
FC(F)(F)C(Nc1ccc(NCCn2cncn2)cn1)c1ccccc1 (centres unmarked) [SS20308-0245-01, N^5-(2-(1H-1,2,4-triazol-1-yl)ethyl)-N^2-(2,2,2-trifluoro-1-phenylethyl)pyridine-2,5-diamine] | 0.51 µM | 1.19 µM | –
Cn1cc(-c2ccc(Nc3ccccc3)cc2NCCn2cncn2)cn1 [SS20308-0191-01, N^3-(2-(1H-1,2,4-triazol-1-yl)ethyl)-4-(1-methyl-1H-pyrazol-4-yl)-N^1-phenylbenzene-1,3-diamine] | – | 4.18 µM | 5.71
